Experimental data as given in patent publication US10729817B2, “Medical device and plasticized nylon” (Medtronic Vascular, Inc., priority 2013, dated 2020).

Experiments:
[1] = Thermal properties of plasticized Nylon-12 by DSC; type: physicochemical
[2] = Flexural properties of pressed films, ASTM D790-97B; type: physicochemical; details: for Flexural elastic modulus: 10 wt-% plasticizer in RILSAN Nylon-12 film
Method: (§1) Samples of 5, 10, and 15 wt-% of plasticizer from Example 1 were compounded with Nylon-12 in a Brabender mixer at 210° C. Sheets (30-mils thick) were pressed at 200° C. Tensile specimens were punched and tested on an INSTRON testing machine at a cross-head speed of 2 inches/minute according to ASTM D638 test Method. The flexural properties were tested according to ASTM D790-97B test method. The average tensile and flexural moduli of plasticized Nylon-12 are shown in FIG. 3 and FIG. 4, respectively.

[3] = Thermal properties of plasticized Nylon-12 by DSC; type: physicochemical; details: for Crystallinity / mp: 10 wt-% plasticizer in RILSAN Nylon-12, Nylon-12 unplasticized
Method: as §1
(§2) A sample of 10 wt-% of plasticizer from each of Examples 15-17 was compounded with RILSAN Nylon-12 as described in Example 2. The melting point (mp) and crystallinity was determined by DSC.
(§3) A sample of 10 wt-% of plasticizer from each of Examples 4-5 and 19-20 was compounded with RILSAN Nylon-12 as described in Example 2. The melting point (mp) and crystallinity was determined by DSC.

[4] = Tensile test of pressed films, ASTM D638, INSTRON; type: physicochemical; details: for Elongation / Tensile Modulus / Tensile Strength / Tensile elastic modulus: 10 wt-% plasticizer in RILSAN Nylon-12 film; for Elongation / Tensile Modulus / Tensile Strength: Nylon-12 unplasticized
Method: as §1, §2, §3
A sample of 5-10 wt-% in RILSAN Nylon-12 was compounded with 5-10 wt-% plasticizer from Example 8 under similar conditions as in Example 9. Sheets (30-mils thick) were pressed at 200° C. from pellets. Tensile specimens were punched and tested on an INSTRON testing machine at a cross-head speed of 2 inches/minute according to ASTM D638 test Method.

[5] = 5, 10, 15 wt-% plasticizer in Nylon-12
[6] = 10 wt-% plasticizer in GRILAMID L25 Nylon-12
[7] = 5-10 wt-% plasticizer in RILSAN Nylon-12

Row | Compound | Crystallinity ([3]; Table 3) | mp ([3]; Table 3) | Elongation ([4]; Table 3) | Tensile Modulus ([4]; Table 3) | Tensile Strength ([4]; Table 3) | Crystallinity ([3]; Table 2) | mp ([3]; Table 2) | Elongation ([4]; Table 2) | Tensile Modulus ([4]; Table 2) | Tensile Strength ([4]; Table 2) | also measured
1 | CCCCCCCC(=O)NCCN(CCNC(=O)CCCCCCC)C(=O)CCCCCCC [Example 1, N,N′,N″-trioctanoyl diethylenetriamine] | – | – | – | – | – | – | – | – | – | – | ΔHm ([1]; 5% plasticizer in Nylon-12): 60.2 J/g; % Crystallinity ([1]; 10% plasticizer in Nylon-12): 27.8%; Tm Melt peak ([1]; 10% plasticizer in Nylon-12): 175.9 °C; Tm Melt peak ([1]; 15% plasticizer in Nylon-12): 173.9 °C; ΔHm ([1]; 15% plasticizer in Nylon-12): 54.7 J/g; Flexural modulus of Nylon-12 after adding the plasticizer [2, 5]: decreased; % Crystallinity ([3]; 5% plasticizer in Nylon-12): 28.8%; Tm Melt peak ([3]; 5% plasticizer in Nylon-12): 176.6 °C; ΔHm ([3]; 10% plasticizer in Nylon-12): 58.2 J/g; % Crystallinity ([3]; 15% plasticizer in Nylon-12): 26.2%; Tensile modulus of Nylon-12 after adding the plasticizer [4, 5]: decreased
2 | CCCCCCC(=O)NCCN(CCNC(=O)CCCCCC)C(=O)CCCCCC [Example 4, N,N′,N″-triheptanoyl diethylenetriamine] | 29.8 % by DSC | 175.2 °C | 231% | 66588 psi | 7422 psi | – | – | – | – | – | –
3 | CCCCCCCCC(=O)NCCN(CCNC(=O)CCCCCCCC)C(=O)CCCCCCCC [Example 5, N,N′,N″-trinonanoyl diethylenetriamine] | 29.2 % by DSC | 176.0 °C | 226% | 74935 psi | 7411 psi | – | – | – | – | – | –
4 | CCCCCCCC(=O)NCCN(CCNC(=O)CCCCCCC)C(=O)CCCCCCC [Example 8, N,N′,N″-trioctanoyl diethylenetriamine] | – | – | – | – | – | – | – | – | – | – | Flexural modulus after adding plasticizer [2, 6]: decreased significantly; Flexural elastic modulus ([2]; listed as unpurified material): 72345 psi; Tensile modulus versus plasticizer content [4, 7]: decreased with increasing plastic content; Tensile strength versus plasticizer content [4, 7]: did not change; Tensile strength of base resin GRILAMID L25 after adding plasticizer [4, 6]: maintained; Tensile elastic modulus ([4]; listed as unpurified material): 82997 psi
5 | CCCCCCCC(=O)NCCN(CCNC(=O)CCCCCCC)C(=O)CCCCCCC [Example 13, N,N′,N″-trioctanoyl diethylenetriamine] | – | – | – | – | – | – | – | – | – | – | Flexural elastic modulus [2]: 71839 psi; Tensile elastic modulus [4]: 85644 psi; melting point: 97.9 °C
6 | CCCCCCC(=O)NCCCN(CCNC(=O)CCCCCC)C(=O)CCCCCC [Example 16, N-(2-aminoethyl)-1,3-propanediamine heptanoic acid triamide] | – | – | – | – | – | 24.6 % by DSC | 175.6 °C | 258% | 83455 psi | 8637 psi | –
7 | CCCCCCCC(=O)NCCCN(CCNC(=O)CCCCCCC)C(=O)CCCCCCC [Example 17, N-(2-aminoethyl)-1,3-propanediamine octanoic acid triamide] | – | – | – | – | – | 25.2 % by DSC | 175.5 °C | 263% | 81308 psi | 8871 psi | –
8 | CCCCCCCC(=O)NCCN(CCN(CCNC(=O)CCCCCCC)C(=O)CCCCCCC)C(=O)CCCCCCC [Example 18, Triethylenetetramine Octanoic Acid Tetramide] | – | – | – | – | – | 26.7 % by DSC | 176.2 °C | 238% | 95902 psi | 9079 psi | –
9 | CCCCCCCCCC(=O)NCCN(CCNC(=O)CCCCCCCCC)C(=O)CCCCCCCCC [Example 20, N,N′,N″-tridecanoyl diethylenetriamine] | 31.0 % by DSC | 175.9 °C | 251% | 83517 psi | 8034 psi | – | – | – | – | – | –
